Here are results for 12 molecules from US8080546B2, “Pyrazolo-pyridinone derivatives and methods of use” (Amgen Inc., priority 2007, dated 2011).

In one assay the target is p38 (Homo sapiens, UniProt Q16539). Put plainly: p38 in-vitro HTRF enzyme assay. The assay is classed as biochemical. As to conditions: recombinant human enzyme, read-out: p38 enyme HTRF assay IC50. The protocol: p38 In-Vitro HTRF Enzyme Assay
The compounds of the invention can be tested for their respective affinities for the p38 protein using a conventional p38 in-vitro enzyme activity assay. For example, a P38-alpha HTRF assay may be used to measure the protein's in-vitro phosphorylation activity, and the data analyzed using time resolved fluorimetry techniques (FRET). A p38 HTRF assay is as follows. The kinase reaction buffer for p38α, p38β, p38δ and p38γ HTRF assays consists of 50 mM Tris-pH 7.5, 5 mM MgCl2, 0.1 mg/mL BSA, 100 μM Na3VO4 and 0.5 mM DTT. The HTRF detection buffer contains 100 mM HEPES-pH 7.5, 100 mM NaCl, 0.1% BSA, 0.05% Tween-20, and 10 mM EDTA. Each compound was dissolved in 100% DMSO and serially diluted (3 fold, 10 point) in a polypropylene 96-well microtiter plate (drug plate). The final starting concentration of the compound in the p38α and p38β enzymatic assays was about 1 μM. The final starting concentration of each compound in the p38δ and p38γ enzymatic assays was about 10 μM. The p38α, p38β, p38δ and p38γ kinase reactions were carried out in a polypropylene 96-well black round bottom assay plate in total volume of 30 μL kinase reaction buffer. Appropriate concentration of purified and activated enzyme (recombinant human) was mixed with indicated concentration of ATP and 100 nM GST-ATF2-Avitag, in the presence or absence (HI control) of each compound. In the absence of enzyme, the background was measured as LO control. HI controls and LO controls contained only DMSO. The reaction was allowed to incubate for 1 hour at RT. […] After 60 minutes incubation at room temperature, the assay plate was read in a Discovery Plate Reader. […] The resulting data was analyzed by taking the proportion of substrate phosphorylated in the kinase reaction in the presence of each individual compound and comparing it with that phosphorylated in the presence of DMSO vehicle alone (HI control). The data was calculated using the formula: % control (POC)=(compound−average LO)/(average HI−average LO)*100. […] All results were expressed as the mean±the standard error of the mean. Data acquisition and non-linear regression algorithms were performed using Activity Base v5.2 and XLfit software v4.1 respectively. Additional assay information may be obtained in Park Y W, Cummings R T, Wu L, et al. Homogeneous Proximity Tyrosine Kinase Assays Scintillation Proximity Assay versus Homogeneous Time-Resolved Fluorescence. Analytical Biochemistry.

Another assay has as its system THP1 cells. Put plainly: Lipopolysaccharide-activated THP1 cell TNF production assay (THP1 cell based). To be noted: Homo sapiens, THP-1, LPS-induced TNF-α. The protocol:
Lipopolysaccharide-Activated THP1 Cell TNF Production Assay
THP1 cells are resuspended in fresh THP1 media (RPMI 1640, 10% heat-inactivated FBS, 1XPGS, 1XNEAA, plus 30 μM PME) at a concentration of 1E6/mL. One hundred microliters of cells per well are plated in a polystyrene 96-well tissue culture. One microgram per mL of bacterial LPS is prepared in THP1 media and is transferred to the wells. Test compounds are dissolved in 100% DMSO and are serially diluted 3-fold in a polypropylene 96-well microtiter plate (drug plate). HI control and LO control wells contain only DMSO. One microliter of test compound from the drug plate followed by 10 μL of LPS are transferred to the cell plate. The treated cells are induced to synthesize and secrete TNF-α at 37° C. for 3 h. Forty microliters of conditioned media are transferred to a 96-well polypropylene plate containing 110 μL of ECL buffer (50 mM Tris-HCl pH 8.0, 100 mM NaCl, 0.05% Tween 20, 0.05% NaN3 and 1% FBS) supplemented with 0.44 nM MAB610 monoclonal Ab (R&D Systems), 0.34 nM ruthenylated AF210NA polyclonal Ab (R&D Systems) and 44 μg/mL sheep anti-mouse M280 Dynabeads (Dynal). After a 2 h incubation at room temperature with shaking, the reaction is read on the ECL M8 Instrument (IGEN Inc.). A low voltage is applied to the ruthenylated TNF-α immune complexes, which in the presence of TPA (the active component in Origlo), results in a cyclical redox reaction generating light at […]. The amount of secreted TNF-α in the presence of compound compared with that in the presence of DMSO vehicle alone (HI control) is calculated using the formula: % control (POC)=(cpd−average LO)/(average HI−average LO)*100. Data (consisting of POC and inhibitor concentration in μM) is fitted to a 4-parameter equation (y=A+((B−A)/(1+((x/C)^D))), where A is the minimum y (POC) value, B is the maximum y (POC), C is the x (cpd concentration) at the point of inflection and D is the slope factor) using a Levenburg-Marquardt non-linear regression algorithm.

For another assay, the system named is IL-1. Put plainly: LPS induced IL-1 cell based assay (LPS-activated monocytes). To be noted: Homo sapiens, Monocyte. The protocol:
Lipopolysaccharide-Activated Monocyte TNF Production Assay
Test compounds were evaluated in vitro for the ability to inhibit the production of TNF by monocytes activated with bacterial lipopolysaccharide (LPS). Fresh residual source leukocytes (a byproduct of plateletpheresis) were obtained from a local blood bank, and peripheral blood mononuclear cells (PBMCs) were isolated by density gradient centrifugation on Ficol-Paque Plus (Pharmacia). PBMCs were suspended at 2×10^6/mL in DMEM supplemented to contain 2% FCS, 10 mM, 0.3 mg/mL […], 100 U/mL penicillin G and […] streptomycin sulfate (complete media). Cells were plated into Falcon flat bottom, 96 well culture plates (200 μL/well) and cultured overnight at 37° C. and 6% CO2. Non-adherent cells were removed by washing with 200 μl/well of fresh medium. Wells containing adherent cells (˜70% monocytes) were replenished with 100 μL of fresh medium.
Preparation of Test Compound Stock Solutions
Test compounds were dissolved in […]. Compound stock solutions were prepared to an initial concentration of […]. Stocks were diluted initially to 20-200 μM in complete media. Nine two-fold serial dilutions of each compound were then prepared in complete medium.
Treatment of Cells with Test Compounds and Activation of TNF Production with Lipopolysaccharide
One hundred microliters of each test compound dilution were added to microtiter wells containing adherent monocytes and 100 μL complete medium. Monocytes were cultured with test compounds for 60 min at which time 25 μL of complete medium containing 30 ng/mL lipopolysaccharide from E. coli K532 were added to each well. Cells were cultured an additional 4 hrs. Culture supernatants were then removed and TNF presence in the supernatants was quantified using an ELISA. […]
Standard curve data were fit to a second order polynomial and unknown TNF-α concentrations determined from their OD by solving this equation for concentration. TNF concentrations were then plotted vs. test compound concentration using a second order polynomial. This equation was then used to calculate the concentration of test compounds causing a 50% reduction in TNF production.
Compounds of the invention can also be shown to inhibit LPS-induced release of IL-1β, IL-6 and/or IL-8 from monocytes by measuring concentrations of IL-1β, IL-6 and/or IL-8 by methods well known to those skilled in the art. […] Thus, the compounds of the invention may lower elevated levels of TNF-α, IL-1, IL-6, and IL-8 levels. Reducing elevated levels of these inflammatory cytokines to basal levels or below is favorable in controlling, slowing progression, and alleviating many disease states.

Like-named read-outs stand apart in the source and are kept apart here. Where only a bound is given, the exact number is not on record here.

Chain of p38 (Q16539 whole entry): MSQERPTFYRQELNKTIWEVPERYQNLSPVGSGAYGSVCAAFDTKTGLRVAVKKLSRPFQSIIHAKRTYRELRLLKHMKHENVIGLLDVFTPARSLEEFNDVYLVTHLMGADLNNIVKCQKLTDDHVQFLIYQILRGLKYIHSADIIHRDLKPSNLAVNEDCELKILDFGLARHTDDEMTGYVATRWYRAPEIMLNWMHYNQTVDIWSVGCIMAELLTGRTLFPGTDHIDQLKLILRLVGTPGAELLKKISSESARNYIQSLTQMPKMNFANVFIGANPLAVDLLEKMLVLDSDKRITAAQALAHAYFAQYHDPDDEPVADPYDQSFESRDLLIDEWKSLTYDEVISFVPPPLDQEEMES

Broadly, the IC50 is the concentration that gives 50% inhibition. Regarding `Cc1ccc(C(=O)NC2CC2)cc1Oc1cc(=O)n(C)c2c1cnn2-c1c(F)cccc1F` [Example 16, N-cyclopropyl-3-((1-(2,6-difluorophenyl)-7-methyl-6-oxo-6,7-dihydro-1H-pyrazolo[3,4-b]pyridin-4-yl)oxy)-4-methylbenzamide], the IC50 at p38 (range symbols) is below 25 nM; in the assay with THP1 cells (range symbols) it was below 25 nM; in the assay with IL-1 (range symbols), 25 to 99 nM.

Turning to `Cc1ccc(C(=O)O)cc1Nc1cc(=O)n(C)c2c1cnn2-c1ccc(F)cc1F` [Example 17, 3-((1-(2,4-difluorophenyl)-7-methyl-6-oxo-6,7-dihydro-1H-pyrazolo[3,4-b]pyridin-4-yl)amino)-4-methylbenzoic acid], the half-inhibitory concentration (IC50) on p38 (range symbols), in the assay with THP1 cells (range symbols) and in the assay with IL-1 (range symbols) was 1000 to 5000 nM each time.

As for `Cc1ccc(C(N)=O)cc1Nc1cc(=O)n(C)c2c1cnn2-c1ccc(F)cc1F` [Example 18, 3-((1-(2,4-difluorophenyl)-7-methyl-6-oxo-6,7-dihydro-1H-pyrazolo[3,4-b]pyridin-4-yl)amino)-4-methylbenzamide], the concentration for half-maximal inhibition (IC50) at p38 (range symbols), with THP1 cells (range symbols) and with IL-1 (range symbols) was below 25 nM each time.

As to `Cc1ccc(C(=O)NC2CC2)cc1Oc1cc(=O)n(C)c2c1cnn2-c1ccc(F)cc1F` [Example 19, N-cyclopropyl-3-((1-(2,4-difluorophenyl)-7-methyl-6-oxo-6,7-dihydro-1H-pyrazolo[3,4-b]pyridin-4-yl)oxy)-4-methylbenzamide], the figures for the IC50 on p38 (range symbols), in the assay on THP1 cells (range symbols) and in the assay on IL-1 (range symbols) were below 25 nM, below 25 nM and 25 to 99 nM, respectively.

Consider `Cc1ccc(C(=O)NC2CC2)cc1Nc1cc(=O)n(C)c2c1cnn2-c1cc(F)ccc1F` [Example 20, N-cyclopropyl-3-((1-(2,5-difluorophenyl)-7-methyl-6-oxo-6,7-dihydro-1H-pyrazolo[3,4-b]pyridin-4-yl)amino)-4-methylbenzamide], for which the IC50 on p38 (range symbols), in the assay with THP1 cells (range symbols) and in the assay on IL-1 (range symbols) was below 25 nM in each case.

Take `Cc1ccc(C(N)=O)cc1Nc1cc(=O)n(C)c2c1cnn2-c1cc(F)ccc1F` [Example 21, 3-((1-(2,5-difluorophenyl)-7-methyl-6-oxo-6,7-dihydro-1H-pyrazolo[3,4-b]pyridin-4-yl)amino)-4-methylbenzamide]: the IC50 at p38 (range symbols) was below 25 nM; in the assay on THP1 cells (range symbols), below 25 nM; with IL-1 (range symbols) it was 25 to 99 nM.

With `Cc1ccc(C(=O)NC2CC2)cc1Oc1cc(=O)n(C)c2c1cnn2-c1cc(F)ccc1F` [Example 22, N-cyclopropyl-3-((1-(2,5-difluorophenyl)-7-methyl-6-oxo-6,7-dihydro-1H-pyrazolo[3,4-b]pyridin-4-yl)oxy)-4-methylbenzamide], the IC50 is below 25 nM at p38 (range symbols), below 25 nM in the assay with THP1 cells (range symbols) and 100 to 249 nM with IL-1 (range symbols).

For `CCn1c(=O)cc(Nc2cc(C(=O)NC3CC3)ccc2C)c2cnn(-c3ccc(F)cc3)c21` [Example 23, N-cyclopropyl-3-((7-ethyl-1-(4-fluorophenyl)-6-oxo-6,7-dihydro-1H-pyrazolo[3,4-b]pyridin-4-yl)amino)-4-methylbenzamide], the IC50 at p38 (range symbols), in the assay on THP1 cells (range symbols) and in the assay with IL-1 (range symbols) was below 25 nM throughout.

Take `CCn1c(=O)cc(Oc2cc(C(=O)NC3CC3)ccc2C)c2cnn(-c3ccc(F)cc3)c21` [Example 24, N-cyclopropyl-3-((7-ethyl-1-(4-fluorophenyl)-6-oxo-6,7-dihydro-1H-pyrazolo[3,4-b]pyridin-4-yl)oxy)-4-methylbenzamide]: the 50% inhibitory concentration (IC50) on p38 (range symbols) was below 25 nM; with THP1 cells (range symbols), below 25 nM; in the assay with IL-1 (range symbols), 25 to 99 nM.

Regarding `CCn1c(=O)cc(Nc2cc(C(=O)NC3CC3)ccc2Cl)c2cnn(-c3ccc(F)cc3F)c21` [Example 27, 4-chloro-N-cyclopropyl-3-((1-(2,4-difluorophenyl)-7-ethyl-6-oxo-6,7-dihydro-1H-pyrazolo[3,4-b]pyridin-4-yl)amino)benzamide], the half-inhibitory concentration (IC50) is 1.2 nM at p38 (actual values), 0.4 nM with THP1 cells (actual values) and 3.3 nM in the assay on IL-1 (actual values).

With `Cn1c(=O)cc(Nc2cc(C(=O)NC3CC3)ccc2Cl)c2cnn(-c3ccc(F)cc3)c21` [Example 28, 4-chloro-N-cyclopropyl-3-((1-(4-fluorophenyl)-7-methyl-6-oxo-6,7-dihydro-1H-pyrazolo[3,4-b]pyridin-4-yl)amino)benzamide], the figures for the half-maximal inhibitory concentration (IC50) on p38 (actual values), in the assay on THP1 cells (actual values) and in the assay on IL-1 (actual values) were 2.1 nM, 0.8 nM and 4.2 nM, respectively.

In the case of `CCn1c(=O)cc(Nc2cc(C(=O)NC3CC3)ccc2Cl)c2cnn(-c3ccc(F)cc3)c21` [Example 29, 4-chloro-N-cyclopropyl-3-((7-ethyl-1-(4-fluorophenyl)-6-oxo-6,7-dihydro-1H-pyrazolo[3,4-b]pyridin-4-yl)amino)benzamide], the IC50 on p38 (actual values) is 1.7 nM; in the assay on THP1 cells (actual values), 1.4 nM; in the assay with IL-1 (actual values) it was 3.6 nM.
